In article PMC2728625 (Nature structural & molecular biology, 2009):
Marks after values point to notes of the source that are not given here.

Experiments:
PV RdRp WT [1] = biological target: T1, PV RdRp WT (Poliovirus type 1, UniProt P03300); format: biochemical
T7 DdRp WT = T7 DdRp WT (Escherichia phage T7, UniProt P00573); format: biochemical
T7 DdRp K631L = T7 DdRp K631L (Escherichia phage T7, UniProt P00573, K631L); format: biochemical
PV RdRp WT [2] = biological target: T1, PV RdRp WT; format: biochemical; remark: listed apart in the source
PV RdRp WT [3] = biological target: T1, PV RdRp WT; conditions: cited from earlier work
[4] = read-out: Kd,app (apparent dissociation constant for nucleotide)

T1 sequence (P03300 1749-2209 limits assumed): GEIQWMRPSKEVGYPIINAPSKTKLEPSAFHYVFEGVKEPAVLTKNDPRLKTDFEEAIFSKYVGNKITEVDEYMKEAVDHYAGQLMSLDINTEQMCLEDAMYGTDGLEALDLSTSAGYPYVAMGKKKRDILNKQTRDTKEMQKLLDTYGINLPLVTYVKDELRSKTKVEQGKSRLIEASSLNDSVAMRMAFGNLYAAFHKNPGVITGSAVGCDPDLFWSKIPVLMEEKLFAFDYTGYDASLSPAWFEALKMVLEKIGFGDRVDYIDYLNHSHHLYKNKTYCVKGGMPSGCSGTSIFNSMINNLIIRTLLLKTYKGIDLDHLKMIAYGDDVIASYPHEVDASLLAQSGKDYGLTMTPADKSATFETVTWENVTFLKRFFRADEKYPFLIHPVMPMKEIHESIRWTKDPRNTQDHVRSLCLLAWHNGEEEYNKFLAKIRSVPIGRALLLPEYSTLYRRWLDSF
Chain of T7 DdRp K631L (P00573 whole entry K631L, looked up): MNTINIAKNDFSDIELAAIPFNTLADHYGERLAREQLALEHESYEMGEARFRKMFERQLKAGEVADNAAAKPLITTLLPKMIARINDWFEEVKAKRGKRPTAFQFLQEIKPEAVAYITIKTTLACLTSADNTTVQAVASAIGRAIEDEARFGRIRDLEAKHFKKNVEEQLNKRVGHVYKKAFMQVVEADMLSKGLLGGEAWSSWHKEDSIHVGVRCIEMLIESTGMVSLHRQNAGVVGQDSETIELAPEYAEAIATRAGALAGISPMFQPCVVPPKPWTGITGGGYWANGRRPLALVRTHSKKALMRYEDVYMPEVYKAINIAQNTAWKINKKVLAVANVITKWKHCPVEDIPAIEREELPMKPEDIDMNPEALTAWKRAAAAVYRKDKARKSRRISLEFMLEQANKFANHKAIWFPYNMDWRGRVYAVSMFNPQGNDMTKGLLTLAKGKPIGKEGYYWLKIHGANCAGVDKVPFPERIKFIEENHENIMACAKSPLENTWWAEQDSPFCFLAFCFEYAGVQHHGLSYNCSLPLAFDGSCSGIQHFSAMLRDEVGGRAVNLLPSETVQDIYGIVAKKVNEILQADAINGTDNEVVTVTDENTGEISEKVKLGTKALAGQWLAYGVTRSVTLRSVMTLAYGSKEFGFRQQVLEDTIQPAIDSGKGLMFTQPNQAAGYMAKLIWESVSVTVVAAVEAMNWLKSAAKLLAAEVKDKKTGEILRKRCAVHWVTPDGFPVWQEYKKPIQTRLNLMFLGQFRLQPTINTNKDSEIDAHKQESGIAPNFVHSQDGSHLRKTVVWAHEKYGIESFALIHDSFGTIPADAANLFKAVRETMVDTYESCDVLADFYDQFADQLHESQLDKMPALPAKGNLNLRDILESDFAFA
Chain of T7 DdRp WT (P00573 whole entry, looked up): as the sequence (P00573 whole entry K631L, looked up) above, with L631K counted along it

Nc1ncnc2c1ncn2[C@@H]1O[C@H](COP(=O)(O)OP(=O)(O)OP(=O)(O)O)[C@@H](O)[C@H]1O [ATP]
PI (proton inventory: proton-transfer model that best fits) (PV RdRp WT [1]): 2 | SDKIE (solvent deuterium kinetic isotope effect) (PV RdRp WT [1]): 3.0 ± 0.3 | kpol (maximal rate constant for nucleotide incorporation) (PV RdRp WT [1]): 50 ± 5 s⁻¹ | Kd (PV RdRp WT [1]; [4]): 200 ± 20 µM | PI (proton inventory: proton-transfer model that best fits) (T7 DdRp WT): 2 | SDKIE (solvent deuterium kinetic isotope effect) (T7 DdRp WT): 5.2 ± 0.5 | kpol (maximal rate constant for nucleotide incorporation) (T7 DdRp WT; pH 7.5): 60 ± 5 s⁻¹ | Kd (T7 DdRp WT; read-out: Kd,app (apparent dissociation constant for nucleotide), pH 7.5): 300 ± 30 µM | SDKIE (solvent deuterium kinetic isotope effect) (T7 DdRp K631L): 2.6 ± 0.5 ^c | kpol (maximal rate constant for nucleotide incorporation) (T7 DdRp K631L): 0.6 ± 0.1 s⁻¹ | reduction in kpol relative to wt (T7 DdRp K631L): 100 fold | Kd (T7 DdRp K631L; [4]): 50000 µM | SDKIE (PV RdRp WT [2]): 7 ± 1 | pKa from pH rate profile of kpol, second ionizable group (PV RdRp WT [3]): 10.5
